Test results as given in patent US12605370B2, “Agents and compositions for the treatment of glioblastoma” (University of Cincinnati, priority 2020, dated 2026).

What was measured:
Type in all cases: cell-based
[1] = tested on: PTEN-deficient U-vector U87MG glioblastoma cells; experiment: Cell viability (CytoTox Glo) in PTEN-deficient U-vector U87MG glioblastoma cells; conditions: serum-free, 72 hours
Description: (§1) FIG. 2 depicts a dose curve analysis showing the efficacy of the combination of LY2584702 with merestinib in PTEN-deficient U87MG glioblastoma cells. Viability was measured using CytoTox Glo after culturing with inhibitors in serum-free conditions for 72 hours. Doxycycline addition induced PTEN and protected cells from the cytotoxic effect of combination drug treatment.
(§2) U87MG glioblastoma cells were treated with doxycycline to induce PTEN expression (U-PTEN), while a separate set of U87 glioblastoma cells were treated with a similar amount of vector (U-vector). Thus, the U-vector cells were PTEN-deficient. These cells were then treated with either vehicle control, 10 μM LY2584702, 0.1-20 μM merestinib, or a combination of 10 μM LY2584702 and 0.1-20 μM merestinib. Cell viability was measured using CytoTox Glo after culturing with inhibitors in serum-free conditions for 72 hours.

[2] = tested on: PTEN-expressing glioblastoma cells; experiment: Cell viability in PTEN-expressing glioblastoma cells (cabozantinib comparison)
Description: (§3) Glioblastoma cells were treated to produce two populations: PTEN-expressing and PTEN-deficient. These cells were then treated with either vehicle control, LY2584702, variable concentrations of cabozantinib, or a combination of LY2584702 and variable concentrations of cabozantinib. Cabozantinib is a small molecule inhibitor of RTKs, including TAM receptors. Cell viability was measured after culturing with the inhibitors.

shNT LN229 cells = experiment: Cell viability (CytoTox Glo) in non-targeting shNT LN229 glioblastoma cells; conditions: serum-free, 72 hours
Description: (§4) LN229 glioblastoma cells were transduced with either short hairpin RNA (shRNA) lentiviral particles coding for non-targeting shRNA (shNT) or shRNA that targets PTEN mRNA (shPTEN) for inhibition and degradation. These cells were then treated with either vehicle control, 10 μM LY2584702, 0.1-20 μM merestinib, or a combination of 10 μM LY2584702 and 0.1-20 μM merestinib. Cell viability was measured using CytoTox Glo after culturing with inhibitors in serum-free conditions for 72 hours.

[3] = tested on: PTEN-expressing U-PTEN U87MG cells; experiment: Cell viability (CytoTox Glo) in PTEN-expressing U-PTEN U87MG glioblastoma cells; conditions: U-PTEN U87MG (doxycycline-induced PTEN), serum-free, 72 hours
Description: as §1, §2

[4] = tested on: PTEN-deficient glioblastoma cells; experiment: Cell viability in PTEN-deficient glioblastoma cells (cabozantinib comparison)
Description: as §3

[5] = tested on: shPTEN LN229 glioblastoma cells; experiment: Cell viability (CytoTox Glo) in PTEN-deficient shPTEN LN229 glioblastoma cells; conditions: serum-free, 72 hours
Description: FIG. 1 depicts a dose curve analysis showing the efficacy of the combination of LY2584702 with merestinib in shPTEN LN229 glioblastoma cells. Viability was measured using CytoTox Glo after culturing with inhibitors in serum-free conditions for 72 hours.
as §4

[6] = variable concentrations of cabozantinib alone

Measured: cytotoxicity (cell viability)

Cn1cc(-c2ccc(F)c(C(F)(F)F)c2)nc1C1CCN(c2ncnc3[nH]ncc23)CC1 [LY2584702]
not cytotoxic: [1]; 10 μM LY2584702 alone | [2]; LY2584702 alone | shNT LN229 cells; 10 μM LY2584702 alone | [3]; 10 μM LY2584702 alone | [4]; LY2584702 alone | [5]; 10 μM LY2584702 alone

COc1cc2nccc(Oc3ccc(NC(=O)C4(C(=O)Nc5ccc(F)cc5)CC4)cc3)c2cc1OC [cabozantinib]
not cytotoxic: [2]; [6] | [4]; [6]

Cc1ccc(C(=O)Nc2ccc(Oc3cc4cnn(C)c4cc3-c3cn[nH]c3)c(F)c2)c(=O)n1-c1ccc(F)cc1 [merestinib]
not cytotoxic: [1]; 0.1-20 μM merestinib alone | shNT LN229 cells; 0.1-20 μM merestinib alone | [3]; 0.1-20 μM merestinib alone | [5]; 0.1-20 μM merestinib alone
